The source of these data is article PMC10175918 (Communications Biology, 2023).

Common to all, as to assay: TGFα-shedding assay-based GPCR screening with chimeric Gα subunit proteins
Holding throughout (assay type): cell-based

Assay [1] has as its target T1, 348 GPCRs (Homo sapiens, UniProt O43194).
T1 construct: expressed in transfected cells; host or cells: HEK293A
T1 sequence (O43194 1-453): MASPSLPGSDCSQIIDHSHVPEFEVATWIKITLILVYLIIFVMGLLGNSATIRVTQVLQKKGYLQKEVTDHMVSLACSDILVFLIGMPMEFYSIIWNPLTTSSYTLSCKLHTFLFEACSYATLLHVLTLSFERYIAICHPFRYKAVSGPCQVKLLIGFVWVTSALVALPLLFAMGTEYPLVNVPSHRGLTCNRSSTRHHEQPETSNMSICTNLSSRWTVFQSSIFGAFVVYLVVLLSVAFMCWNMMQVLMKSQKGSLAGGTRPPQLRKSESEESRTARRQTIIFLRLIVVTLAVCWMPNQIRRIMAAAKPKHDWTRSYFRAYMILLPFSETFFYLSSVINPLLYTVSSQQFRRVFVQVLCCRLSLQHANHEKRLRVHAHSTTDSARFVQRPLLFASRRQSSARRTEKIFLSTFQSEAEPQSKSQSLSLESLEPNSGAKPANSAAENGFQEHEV

In assay [2] the target is T2, 348 GPCRs (Homo sapiens, UniProt P21731).
T2 construct: expressed in transfected cells; host or cells: HEK293A
T2 sequence (P21731 1-343): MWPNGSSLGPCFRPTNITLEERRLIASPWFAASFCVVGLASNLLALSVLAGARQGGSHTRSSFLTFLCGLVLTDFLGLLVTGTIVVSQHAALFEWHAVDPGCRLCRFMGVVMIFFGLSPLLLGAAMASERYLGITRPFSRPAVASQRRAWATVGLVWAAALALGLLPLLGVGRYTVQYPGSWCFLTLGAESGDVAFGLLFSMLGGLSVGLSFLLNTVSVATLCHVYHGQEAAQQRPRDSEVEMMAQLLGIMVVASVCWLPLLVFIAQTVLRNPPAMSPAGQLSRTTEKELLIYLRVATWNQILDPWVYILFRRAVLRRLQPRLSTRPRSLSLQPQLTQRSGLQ
Conditions: 10µM, Favipiravir 100μM.

Assay [3] addresses T3, 348 GPCRs (Homo sapiens, UniProt P28335).
T3 sequence (P28335 33-458): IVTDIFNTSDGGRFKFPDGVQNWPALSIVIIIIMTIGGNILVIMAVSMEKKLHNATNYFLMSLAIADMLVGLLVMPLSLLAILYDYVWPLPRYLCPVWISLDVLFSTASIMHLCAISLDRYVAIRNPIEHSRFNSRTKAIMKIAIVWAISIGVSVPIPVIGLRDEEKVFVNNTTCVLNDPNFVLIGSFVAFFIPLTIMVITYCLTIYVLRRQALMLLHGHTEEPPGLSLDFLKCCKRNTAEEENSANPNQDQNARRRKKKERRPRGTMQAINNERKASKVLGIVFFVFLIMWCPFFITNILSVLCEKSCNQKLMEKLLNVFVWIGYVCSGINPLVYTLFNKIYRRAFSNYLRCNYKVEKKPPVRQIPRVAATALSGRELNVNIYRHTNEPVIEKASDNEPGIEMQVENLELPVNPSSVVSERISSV
Conditions: 10µM, Favipiravir 100μM.

The target in assay [4] is T4, 348 GPCRs (Homo sapiens, UniProt P47211).
T4 sequence (P47211 1-349): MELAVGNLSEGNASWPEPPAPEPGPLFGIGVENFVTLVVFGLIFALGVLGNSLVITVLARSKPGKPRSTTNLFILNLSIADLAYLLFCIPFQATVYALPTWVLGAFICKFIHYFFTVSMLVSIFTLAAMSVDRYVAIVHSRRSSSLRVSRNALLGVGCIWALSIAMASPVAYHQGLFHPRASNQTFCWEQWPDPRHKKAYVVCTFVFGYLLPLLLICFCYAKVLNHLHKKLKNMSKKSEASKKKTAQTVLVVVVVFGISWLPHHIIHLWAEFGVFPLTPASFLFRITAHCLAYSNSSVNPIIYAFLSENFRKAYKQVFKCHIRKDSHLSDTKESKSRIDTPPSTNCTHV
As to conditions: 10µM, Favipiravir 100μM.

In assay [5] the target is T5, 348 GPCRs (Homo sapiens, UniProt Q99678).
T5 construct: expressed in transfected cells; host or cells: HEK293A
T5 sequence (Q99678 whole entry): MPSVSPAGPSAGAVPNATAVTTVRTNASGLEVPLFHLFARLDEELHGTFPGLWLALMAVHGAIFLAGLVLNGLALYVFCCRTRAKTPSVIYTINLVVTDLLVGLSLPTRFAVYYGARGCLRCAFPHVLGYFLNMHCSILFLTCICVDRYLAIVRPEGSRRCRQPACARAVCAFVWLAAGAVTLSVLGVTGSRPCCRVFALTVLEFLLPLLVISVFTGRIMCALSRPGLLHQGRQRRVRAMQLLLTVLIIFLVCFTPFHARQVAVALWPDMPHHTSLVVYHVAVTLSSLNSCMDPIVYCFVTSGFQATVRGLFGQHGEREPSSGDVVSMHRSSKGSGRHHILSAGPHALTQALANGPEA
Conditions: 10µM, Favipiravir 100μM.

Assay [6] concerns the target T6, 348 GPCRs (Homo sapiens, UniProt Q9HB89).
T6 construct: expressed in transfected cells; host or cells: HEK293A
T6 sequence (Q9HB89 1-426): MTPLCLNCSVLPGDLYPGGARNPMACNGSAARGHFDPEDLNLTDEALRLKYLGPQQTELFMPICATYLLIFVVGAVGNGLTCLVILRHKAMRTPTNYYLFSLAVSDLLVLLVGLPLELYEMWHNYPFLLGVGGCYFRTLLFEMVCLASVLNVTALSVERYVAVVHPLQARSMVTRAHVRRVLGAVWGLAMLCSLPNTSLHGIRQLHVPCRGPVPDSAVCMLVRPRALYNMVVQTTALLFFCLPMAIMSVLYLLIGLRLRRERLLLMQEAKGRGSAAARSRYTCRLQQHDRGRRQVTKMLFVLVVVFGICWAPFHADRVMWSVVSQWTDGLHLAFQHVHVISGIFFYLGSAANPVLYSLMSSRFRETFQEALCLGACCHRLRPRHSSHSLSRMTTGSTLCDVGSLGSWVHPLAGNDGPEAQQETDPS
Conditions: 10µM, Favipiravir 100μM.

In assay [7] the target is T7, 348 GPCRs (Homo sapiens, UniProt Q9NYM4).
T7 construct: expressed in transfected cells; host or cells: HEK293A
T7 sequence (Q9NYM4 17-423): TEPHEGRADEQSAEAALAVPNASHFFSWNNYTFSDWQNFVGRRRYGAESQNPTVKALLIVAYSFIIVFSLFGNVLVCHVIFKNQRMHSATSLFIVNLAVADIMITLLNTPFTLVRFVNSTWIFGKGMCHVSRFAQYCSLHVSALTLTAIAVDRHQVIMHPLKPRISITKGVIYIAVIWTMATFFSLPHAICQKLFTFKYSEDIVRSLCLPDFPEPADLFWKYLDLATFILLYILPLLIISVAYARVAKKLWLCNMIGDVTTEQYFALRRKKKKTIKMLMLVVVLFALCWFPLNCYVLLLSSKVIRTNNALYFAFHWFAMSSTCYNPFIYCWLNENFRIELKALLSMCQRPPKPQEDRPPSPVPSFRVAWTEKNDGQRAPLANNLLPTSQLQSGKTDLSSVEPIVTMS
As to conditions: 10µM, Favipiravir 100μM.

[8] abbreviates: read-out: % GPCR activation compared to TPA, GPCR GPR39 (G Protein-Coupled Receptor 39).
The mark [9] stands for this setting: read-out: % GPCR activation compared to TPA, TBXA2R (thromboxane A2 receptor).
[10] abbreviates: read-out: % GPCR activation compared to TPA, 5-HT2C (5-hydroxytryptamine receptor 2C).
Setting [11] is: read-out: % GPCR activation compared to TPA, GALR1 (galanin receptor 1).
Setting [12] is: read-out: % GPCR activation compared to TPA, GPR20 (G protein-coupled receptor 20).
The mark [13] stands for this setting: read-out: % GPCR activation compared to TPA, NMUR1 (neuromedin U receptor 1).
The mark [14] stands for this setting: read-out: % GPCR activation compared to TPA, GPR83 (G Protein-Coupled Receptor 83).
Setting [15] is: TBXA2R (thromboxane A2 receptor), read-out: % GPCR activation compared to TPA.
Setting [16] is: 5-HT2C (5-hydroxytryptamine receptor 2C), read-out: % GPCR activation compared to TPA.
[17] abbreviates: GALR1 (galanin receptor 1), read-out: % GPCR activation compared to TPA.
Setting [18] is: GPR20 (G protein-coupled receptor 20), read-out: % GPCR activation compared to TPA.
[19] abbreviates: NMUR1 (neuromedin U receptor 1), read-out: % GPCR activation compared to TPA.
Setting [20] is: GPR83 (G Protein-Coupled Receptor 83), read-out: % GPCR activation compared to TPA.
Setting [21] is: GPCR GPR39 (G Protein-Coupled Receptor 39), read-out: % GPCR activation compared to TPA.

Like-named read-outs stand apart in the source and are kept apart here.

As to `CC(C)OC(=O)[C@H](C)N[P@](=O)(OC[C@H]1O[C@@H](n2ccc(=O)[nH]c2=O)[C@](C)(F)[C@@H]1O)Oc1ccccc1` [sofosbuvir], the activation at 10 µM at 348 GPCRs [1] (setting [8]) was -4.93%; on 348 GPCRs [2] (setting [9]) it was 0.249%; on 348 GPCRs [6] (setting [13]), -2.52%. Moreover, the activation at 100 µM on 348 GPCRs [3] (setting [10]) is -0.973%; at 348 GPCRs [4] (setting [11]) it was -0.0144%; at 348 GPCRs [5] (setting [12]) it was -2.45%; at 348 GPCRs [7] (setting [14]) it was -0.627%.

Consider `NC(=O)c1nc(F)cnc1O` [favipiravir, 6-fluoro-3-hydroxy-2-pyrazinecarboxamide], for which the activation at 100 µM on 348 GPCRs [1] (GPCR GPR39 (G Protein-Coupled Receptor 39), 100μM, read-out: % GPCR activation compared to TPA) was -6.36%; on 348 GPCRs [3] (setting [16]) it was 3.15%; on 348 GPCRs [4] (setting [17]), 7.08%; on 348 GPCRs [5] (setting [18]) it was 3.63%; at 348 GPCRs [7] (setting [20]) it was -2.15%. Further, the activation at 10 µM was -0.974% on 348 GPCRs [2] (setting [15]) and 0.18% at 348 GPCRs [6] (setting [19]).

As to `CCC(CC)COC(=O)[C@H](C)N[P@](=O)(OC[C@H]1O[C@@](C#N)(c2ccc3c(N)ncnn23)[C@H](O)[C@@H]1O)Oc1ccccc1` [remdesivir], the results for the activation at 10 µM at 348 GPCRs [1] (setting [8]), on 348 GPCRs [2] (setting [9]) and at 348 GPCRs [6] (setting [13]) were 2.25%, -0.881% and 0.248%, respectively. In addition, the activation at 100 µM on 348 GPCRs [3] (setting [10]) was -0.0017%; at 348 GPCRs [4] (setting [11]) it was 6.53%; at 348 GPCRs [5] (setting [12]) it was 8.9%; at 348 GPCRs [7] (setting [14]), -2.36%.

Turning to `N#C[C@@]1(c2ccc3c(N)ncnn23)O[C@H](CO)[C@@H](O)[C@H]1O` [GS441524], the activation at 10 µM at 348 GPCRs [1] (setting [21]) was -9.02%; on 348 GPCRs [2] (setting [15]), -0.528%; on 348 GPCRs [6] (setting [19]) it was -0.746%. In addition, the activation at 100 µM at 348 GPCRs [3] (setting [16]) was 0.017%; at 348 GPCRs [4] (setting [17]), 0.832%; on 348 GPCRs [5] (setting [18]), 7.2%; at 348 GPCRs [7] (setting [20]), -1.11%.

With `CC(C)C(=O)OC[C@H]1O[C@@H](n2ccc(NO)nc2=O)[C@H](O)[C@@H]1O` [molnupiravir], the activation at 10 µM on 348 GPCRs [1] (setting [21]) is -11.5%; at 348 GPCRs [2] (setting [15]) it was -1.16%; at 348 GPCRs [6] (setting [19]) it was -0.0262%. The activation at 100 µM was -2.97% at 348 GPCRs [3] (setting [16]), 1.08% on 348 GPCRs [4] (setting [17]), -0.078% at 348 GPCRs [5] (setting [18]) and -2.02% at 348 GPCRs [7] (setting [20]).
